From ChEMBL document CHEMBL1146354, “Synthesis, cytotoxicity, and DNA topoisomerase II inhibitory activity of benzofuroquinolinediones” (Bioorg Med Chem, 2007)
pIC50: −log10 of the molar value.

Columns and labels:
Homo sapiens [1] = species on record: Homo sapiens; assay: Inhibition of human topoisomerase 2-mediated KDNA decatenation activity at 5 uM after 10 mins relative to control
[2] = target: T1, DNA topoisomerase 1 (Homo sapiens) (UniProt P11387); assay: Inhibition of human topoisomerase 1-mediated DNA relaxation activity at 5 uM after 10 mins relative to control
T1 sequence (whole entry): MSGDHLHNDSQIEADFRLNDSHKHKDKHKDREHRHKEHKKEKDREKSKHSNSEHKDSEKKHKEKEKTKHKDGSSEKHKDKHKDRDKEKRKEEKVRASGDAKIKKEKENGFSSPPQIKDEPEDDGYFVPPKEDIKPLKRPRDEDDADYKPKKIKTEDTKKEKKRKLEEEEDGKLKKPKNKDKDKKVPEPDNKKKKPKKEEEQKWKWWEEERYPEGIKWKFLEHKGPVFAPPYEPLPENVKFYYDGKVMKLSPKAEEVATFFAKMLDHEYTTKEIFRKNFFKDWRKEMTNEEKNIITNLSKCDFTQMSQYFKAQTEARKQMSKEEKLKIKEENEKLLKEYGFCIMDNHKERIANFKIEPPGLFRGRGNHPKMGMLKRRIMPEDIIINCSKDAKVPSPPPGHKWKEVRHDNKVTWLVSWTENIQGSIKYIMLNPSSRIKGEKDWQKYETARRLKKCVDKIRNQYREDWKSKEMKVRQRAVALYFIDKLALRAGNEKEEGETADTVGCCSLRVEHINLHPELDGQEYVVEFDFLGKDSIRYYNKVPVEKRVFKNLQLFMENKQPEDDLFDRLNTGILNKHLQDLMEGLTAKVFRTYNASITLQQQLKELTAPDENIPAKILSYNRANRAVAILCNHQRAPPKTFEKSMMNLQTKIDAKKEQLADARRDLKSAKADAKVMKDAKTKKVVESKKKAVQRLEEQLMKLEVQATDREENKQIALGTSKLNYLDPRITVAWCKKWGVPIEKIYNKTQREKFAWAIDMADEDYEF

XF498 = assay: Cytotoxicity against human XF498 cells by SRB assay; format: functional, cell-based
HCT-116 = assay: Cytotoxicity against human HCT116 cells by SRB assay; format: functional, cell-based
HL-60 = assay: Cytotoxicity against human HL60 cells by SRB assay; format: functional, cell-based
SNU-638 = assay: Cytotoxicity against human SNU638 cells by SRB assay; format: functional, cell-based
A549 = assay: Cytotoxicity against human A549 cells by SRB assay; format: functional, cell-based
HT-1080 = assay: Cytotoxicity against human HT1080 cells by SRB assay; format: functional, cell-based
SK-MEL-2 = assay: Cytotoxicity against human SK-MEL-2 cells by SRB assay; format: functional, cell-based
SK-OV-3 = assay: Cytotoxicity against human SK-OV-3 cells by SRB assay; format: functional, cell-based
[3] = Inhibition of human topoisomerase 2 […]
DNA topoisomerase 1 = target: T2, DNA topoisomerase 1 (Homo sapiens, UniProt P11387); assay: Inhibition of human topoisomerase 1 […]
T2 sequence (P11387 whole entry): T1 sequence (whole entry)

Homo sapiens [4] = species on record: Homo sapiens; assay: Inhibition of human topoisomerase 2-mediated KDNA decatenation activity at 200 uM after 10 mins relative to control

Row | SMILES | inhibition (Homo sapiens [1]) | inhibition [2] | pIC50 (XF498) | pIC50 (HCT-116) | pIC50 (HL-60) | pIC50 (SNU-638) | pIC50 (A549) | pIC50 (HT-1080) | pIC50 (SK-MEL-2) | pIC50 (SK-OV-3) | pIC50 [3] | pIC50 (DNA topoisomerase 1) | inhibition (Homo sapiens [4])
1 | CC(COc1ccc2c3c(oc2c1)C(=O)c1ncccc1C3=O)N(C)C (centres undefined) | 67% | 0% | 7.00 | 7.15 | 6.74 | 6.96 | 7.70 | 7.22 | 7.05 | 7.10 |  |  | 
2 | CCN(CC)CCOc1ccc2c3c(oc2c1)C(=O)c1ccccc1C3=O | 91% | 12% | < 4.70 | 5.77 | 6.19 | 5.51 | 5.96 | 5.66 | < 4.70 | < 4.70 |  |  | 
3 | CC(CN(C)C)Oc1ccc2c3c(oc2c1)C(=O)c1ncccc1C3=O (centres undefined) | 24% | 0% | 6.92 | 7.10 | 7.05 | 6.85 | 7.22 | 6.77 | 6.82 | 6.82 |  |  | 
4 | CC(CN(C)C)Oc1cc2oc3c(c2cc1Cl)C(=O)c1cccnc1C3=O (centres undefined) | 11% | 0% | 6.77 | 6.89 | 7.22 | 7.00 | 7.00 | 7.00 | 6.82 | 6.82 |  |  | 
5 | CC(C)N(CCOc1ccc2c3c(oc2c1)C(=O)c1ccccc1C3=O)C(C)C | 36% | 10% | 5.50 | 5.86 | 5.95 | 5.59 | 5.70 | 5.99 | 5.82 | 5.45 |  |  | 
6 | CC(C)N(CCOc1cc2oc3c(c2cc1Cl)C(=O)c1cccnc1C3=O)C(C)C | 35% | 0% | 6.04 | 6.39 | 6.15 | 6.28 | 6.74 | 6.66 | 6.14 | 6.12 |  |  | 
7 | CC(COc1cc2oc3c(c2cc1Cl)C(=O)c1ccccc1C3=O)N(C)C (centres undefined) | 68% | 0% | 6.26 | 6.47 | 6.20 | 5.94 | 6.35 | 6.19 | 6.30 | 6.19 |  |  | 
8 | CCN(CC)CCOc1cc2oc3c(c2cc1Cl)C(=O)c1cccnc1C3=O | 47% | 0% | 6.40 | 6.89 | 6.51 | 6.85 | 7.05 | 6.82 | 6.62 | 6.60 |  |  | 
9 | COc1cccc2c1C(=O)c1c(O)c3c(c(O)c1C2=O)C[C@@](O)(C(=O)CO)C[C@@H]3O[C@H]1C[C@H](N)[C@H](O)[C@H](C)O1 [DOXORUBICIN] | 78% |  | 7.40 | 6.21 | 7.40 | 7.22 | 6.82 | 7.22 | 7.15 | 6.54 | 5.57 |  | 
10 | CC(C)N(CCOc1cc2oc3c(c2cc1Cl)C(=O)c1ccccc1C3=O)C(C)C | 59% | 14% | < 4.70 | < 4.70 | < 4.70 | < 4.70 | < 4.70 | < 4.70 | < 4.70 | < 4.70 |  |  | 
11 | CC(CN(C)C)Oc1ccc2c3c(oc2c1)C(=O)c1ccccc1C3=O (centres undefined) | 84% | 12% | 5.76 | 6.57 | 6.60 | 6.06 | 6.43 | 6.57 | 5.82 | 5.65 |  | 4.23 | 
12 | CCN(CC)CCOc1cc2oc3c(c2cc1Cl)C(=O)c1ccccc1C3=O | 50% | 19% | < 4.70 | 5.82 | 5.64 | 5.56 | 5.80 | 5.56 | 5.24 | < 4.70 |  |  | 
13 | CC(CN(C)C)Oc1cc2oc3c(c2cc1Cl)C(=O)c1ccccc1C3=O (centres undefined) | 88% | 6% | 6.26 | 6.38 | 6.17 | 7.00 | 6.21 | 6.31 | 6.47 | 6.26 |  |  | 
14 | CC(COc1ccc2c3c(oc2c1)C(=O)c1ccccc1C3=O)N(C)C (centres undefined) | 100% | 14% | 5.33 | 5.66 | 6.41 | 6.08 | 6.68 | 6.47 | 5.67 | 4.72 | 5.92 | 4.38 | 
15 | CC(C)N(CCOc1ccc2c3c(oc2c1)C(=O)c1ncccc1C3=O)C(C)C | 71% | 0% | 6.03 | 6.74 | 7.10 | 6.35 | 6.43 | 6.74 | 6.03 | 5.99 |  |  | 
16 | CCN(CC)CCOc1ccc2c3c(oc2c1)C(=O)c1ncccc1C3=O | 100% | 0% | 6.85 | 7.22 | 6.60 | 6.85 | 7.30 | 7.15 | 6.80 | 6.57 | 6.17 | 4.19 | 
17 | CC(COc1cc2oc3c(c2cc1Cl)C(=O)c1cccnc1C3=O)N(C)C (centres undefined) | 59% | 0% | 6.85 | 6.85 | 6.66 | 6.74 | 7.05 | 6.96 | 6.85 | 6.82 |  |  | 
18 | COc1cc([C@@H]2c3cc4c(cc3[C@@H](O[C@@H]3O[C@@H]5CO[C@@H](C)O[C@H]5[C@H](O)[C@H]3O)[C@H]3COC(=O)[C@H]23)OCO4)cc(OC)c1O [ETOPOSIDE] |  |  |  | 5.73 | 6.43 |  |  |  |  |  | 4.11 |  | 89%
